Active and inactive are the calls of the source. No cut-off for these calls is given here.
Columns and labels:
[1] = test system: Chikungunya virus; experiment: Antiviral activity against Chikungunya virus 181/25 infected in human NHDF cells assessed as reduction of virus titer treated with cells at 1 hr prior to infection and measured at 24 hrs post-infection by plaque assay; format: functional, organism-based; settings: 181/25, NHDF, time 25 hrs
[2] = Cytotoxicity against human NHDF cells assessed as reduction in cell viability incubated for 24 hrs by CellTiter Glo luminescence assay; format: toxicity, cell-based
[3] = test system: Chikungunya virus; experiment: Antiviral activity against Chikungunya virus 181/25 infected in human NHDF cells assessed as log reduction of virus titer at 10 uM treated with cells at 1 hr prior to infection and measured at 24 hrs post-infection by plaque assay; format: functional; settings: time 25 hrs
[4] = Cytotoxicity against human NHDF cells deficient of IRF3 assessed as reduction in cell viability incubated for 72 hrs by CellTiter Glo luminescence assay; format: toxicity, cell-based
[5] = Kinetic solubility of the compound in simulated intestinal fluid at pH 7.5 by LC-MS analysis; format: physicochemical; settings: read-out: Kinetic_solubility
[6] = Octanol/PBS buffer distribution coefficient, logD of the compound at pH 7.5 by LC-MS analysis; format: physicochemical
[7] = Half life of the compound in mouse liver microsomes in presence of NADPH by LC-MS/MS analysis; format: ADME, Microsome
[8] = Half life of the compound in human liver microsomes in presence of NADPH by LC-MS/MS analysis; format: ADME, Microsome
[9] = test system: Venezuelan equine encephalitis virus; experiment: Antiviral activity against VEEV TC-83 infected in human NHDF cells assessed as reduction of virus titer treated with cells at 1 hr prior to infection and measured at 24 hrs post-infection by plaque assay; format: functional; settings: TC-83, NHDF, time 25 hrs
[10] = test system: Venezuelan equine encephalitis virus; experiment: Antiviral activity against VEEV TC-83 infected in human NHDF cells assessed as log reduction of virus titer at 10 uM treated with cells at 1 hr prior to infection and measured at 24 hrs post-infection by plaque assay; format: functional; settings: time 25 hrs
[11] = test system: West Nile virus; experiment: Antiviral activity against West Nile virus NY99 infected in human HEK293 cells assessed as reduction of virus load measured at 3 days post-infection by focus-forming assay; format: functional; settings: NY99, HEK293, 72 h, time 3 day
[12] = test system: West Nile virus; experiment: Antiviral activity against West Nile virus NY99 infected in human HEK293 cells assessed as log reduction of virus titer at 10 uM measured at 3 days post-infection by focus-forming assay; format: functional; settings: time 3 day
[13] = test system: dengue virus type 2; experiment: Antiviral activity against Dengue virus 2 NGC infected in human HEK293 cells assessed as reduction of virus load measured at 3 days post-infection by focus-forming assay; format: functional; settings: HEK293, 72 h, time 3 day
[14] = test system: dengue virus type 2; experiment: Antiviral activity against Dengue virus 2 NGC infected in human HEK293 cells assessed as log reduction of virus titer at 10 uM measured at 3 days post-infection by focus-forming assay; format: functional; settings: time 3 day
[15] = test system: Zika virus; experiment: Antiviral activity against Zika virus PRABC59 infected in human HEK293 cells assessed as reduction of virus load measured at 3 days post-infection by focus-forming assay; format: functional; settings: PRABC59, HEK293, 72 h, time 3 day
[16] = test system: Zika virus; experiment: Antiviral activity against Zika virus PRABC59 infected in human HEK293 cells assessed as log reduction of virus titer at 10 uM measured at 3 days post-infection by focus-forming assay; format: functional; settings: time 3 day
[17] = Cytotoxicity against human HEK293 cells; format: toxicity, cell-based
[18] = target: Dihydroorotate dehydrogenase (quinone), mitochondrial (Homo sapiens) (UniProt Q02127); experiment: Inhibition of human DHODH
[19] = species: Homo sapiens; experiment: Inhibition of Numb-asociated kinase (unknown origin) upto 10 uM relative to control
[20] = target: Epidermal growth factor receptor (Homo sapiens) (UniProt P00533); experiment: Inhibition of EGFR (unknown origin) upto 10 uM relative to control
[21] = species: Homo sapiens; experiment: Inhibition of MAPK (unknown origin) upto 10 uM relative to control
[22] = species: Homo sapiens; experiment: Inhibition of CDK (unknown origin) upto 10 uM relative to control
[23] = species: Homo sapiens; experiment: Inhibition of PI3K/Akt/mTOR (unknown origin) upto 10 uM relative to control
[24] = target: T1, Heme oxygenase 1 (Homo sapiens, UniProt P09601); experiment: Inhibition of HO-1 (unknown origin)
T1 sequence (P09601 whole entry): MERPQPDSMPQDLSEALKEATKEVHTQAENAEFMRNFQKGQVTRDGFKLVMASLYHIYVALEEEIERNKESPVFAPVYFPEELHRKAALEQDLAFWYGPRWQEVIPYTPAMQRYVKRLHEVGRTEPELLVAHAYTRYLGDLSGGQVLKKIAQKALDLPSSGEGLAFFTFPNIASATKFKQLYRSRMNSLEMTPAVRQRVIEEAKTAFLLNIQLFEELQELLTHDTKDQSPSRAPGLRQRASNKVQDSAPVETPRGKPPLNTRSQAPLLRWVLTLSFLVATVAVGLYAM

[25] = Half life in C57BL/6 mouse at 1 mg/kg, iv; format: ADME, organism-based; settings: in vivo
[26] = AUC in C57BL/6 mouse at 1 mg/kg, iv; format: ADME, organism-based; settings: in vivo
[27] = Half life in C57BL/6 mouse at 40 mg/kg, ip; format: ADME, organism-based; settings: in vivo
[28] = AUC in C57BL/6 mouse at 40 mg/kg, ip; format: ADME, organism-based; settings: in vivo
[29] = Cmax in C57BL/6 mouse at 40 mg/kg, ip; format: ADME, organism-based; settings: in vivo
[30] = Bioavailability in C57BL/6 mouse at 40 mg/kg, ip; format: ADME, organism-based; settings: in vivo
[31] = Half life in C57BL/6 mouse at 40 mg/kg, po; format: ADME, organism-based; settings: in vivo
[32] = AUC in C57BL/6 mouse at 40 mg/kg, po; format: ADME, organism-based; settings: in vivo
[33] = Cmax in C57BL/6 mouse at 40 mg/kg, po; format: ADME, organism-based; settings: in vivo
[34] = Oral bioavailability in C57BL/6 mouse at 40 mg/kg; format: ADME, organism-based; settings: in vivo
[35] = Half life in C57BL/6 mouse at 40 mg/kg, sc; format: ADME, organism-based; settings: in vivo
[36] = AUC in C57BL/6 mouse at 40 mg/kg, sc; format: ADME, organism-based; settings: in vivo
[37] = Cmax in C57BL/6 mouse at 40 mg/kg, sc; format: ADME, organism-based; settings: in vivo
[38] = Bioavailability in C57BL/6 mouse at 40 mg/kg, sc; format: ADME, organism-based; settings: in vivo
[39] = test system: Chikungunya virus; experiment: Antiviral activity against Chikungunya virus 181/25 infected in human NHDF cells assessed as inhibition of viral entry at 10 uM pretreated with virus for 2 hrs prior to infection and measured at 24 hrs post-infection by plaque assay; format: functional, organism-based; settings: time 26.0 hrs
[40] = test system: Chikungunya virus; experiment: Antiviral activity against Chikungunya virus 181/25 infected in human NHDF cells assessed as inhibition of infectious virus production at 10 uM treated with infectious cells at 6 hrs post-infection and measured at 48 hrs post-infection following culturing on Vero cells by limiting dilution plaque assay; format: functional, organism-based; settings: time 42.0 hrs
[41] = test system: Chikungunya virus; experiment: (§1) Antiviral activity against Chikungunya virus 181/25 infected in human NHDF cells assessed as inhibition of viral RNA synthesis by measuring 49S genomic RNA accumulation at 10 uM treated with cells for 1 hr prior to infection and measured at 12 hrs post-infection by DIG-labeled probe based Northern blot analysis; format: functional, organism-based; settings: time 13.0 hrs
[42] = test system: Chikungunya virus; experiment: as §1, with “26S subgenomic” for “49S genomic”; format: functional, organism-based; settings: time 13.0 hrs
[43] = test system: Chikungunya virus; experiment: Antiviral activity against Chikungunya virus 181/25 infected in human NHDF cells assessed as inhibition of viral translation by measuring decrease in E2 protein expression at 10 uM cells treated with compound prior to infection and measured at 12 hrs post-infection by western blot analysis; format: functional, organism-based
[44] = test system: Chikungunya virus; experiment: Antiviral activity against Chikungunya virus 181/25 infected in C57BL/6J mouse assessed as reduction in footpad swelling at 80 mg/kg, ip bid for 3 days infected with virus at 2 hrs after first compound treatment and measured at 12 hrs post-final treatment by digital caliper analysis; format: functional, organism-based; settings: time 3.0 day
[45] = test system: Chikungunya virus; experiment: Antiviral activity against Chikungunya virus 181/25 infected in C57BL/6J mouse assessed as reduction in viral load in ipsilateral ankle at 80 mg/kg, ip bid for 3 days infected with virus at 2 hrs after first compound treatment and measured at 12 hrs post-final treatment; format: functional, organism-based; settings: time 3.0 day
[46] = test system: Chikungunya virus; experiment: Antiviral activity against Chikungunya virus 181/25 infected in C57BL/6J mouse assessed as reduction in viral load in contralateral ankle at 80 mg/kg, ip bid for 3 days infected with virus at 2 hrs after first compound treatment and measured at 12 hrs post-final treatment; format: functional, organism-based; settings: time 3.0 day
[47] = test system: Chikungunya virus; experiment: Antiviral activity against Chikungunya virus 181/25 infected in C57BL/6J mouse assessed as reduction in viral dissemination to spleen at 80 mg/kg, ip bid for 3 days infected with virus at 2 hrs after first compound treatment and measured at 12 hrs post-final dose by RT-qPCR analysis; format: functional, organism-based; settings: time 3.0 day
[48] = test system: Chikungunya virus; experiment: Antiviral activity against Chikungunya virus 181/25 infected in C57BL/6J mouse assessed as reduction in viral dissemination to quadriceps at 80 mg/kg, ip bid for 3 days infected with virus at 2 hrs after first compound treatment and measured at 12 hrs post-final dose by RT-qPCR analysis; format: functional, organism-based; settings: time 3.0 day

Chain of Dihydroorotate dehydrogenase (quinone), mitochondrial (Homo sapiens) (Q02127 whole entry): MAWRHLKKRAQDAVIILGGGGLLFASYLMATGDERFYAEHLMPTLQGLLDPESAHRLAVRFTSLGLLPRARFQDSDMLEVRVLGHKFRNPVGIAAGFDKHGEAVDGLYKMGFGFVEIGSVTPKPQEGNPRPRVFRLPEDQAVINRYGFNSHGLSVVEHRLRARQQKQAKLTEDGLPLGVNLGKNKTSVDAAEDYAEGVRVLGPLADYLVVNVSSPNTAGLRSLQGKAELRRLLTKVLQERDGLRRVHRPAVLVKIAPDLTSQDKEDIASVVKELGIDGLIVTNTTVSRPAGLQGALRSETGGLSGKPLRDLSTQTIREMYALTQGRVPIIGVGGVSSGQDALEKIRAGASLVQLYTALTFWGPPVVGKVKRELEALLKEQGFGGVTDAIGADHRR
Chain of Epidermal growth factor receptor (Homo sapiens) (P00533 whole entry): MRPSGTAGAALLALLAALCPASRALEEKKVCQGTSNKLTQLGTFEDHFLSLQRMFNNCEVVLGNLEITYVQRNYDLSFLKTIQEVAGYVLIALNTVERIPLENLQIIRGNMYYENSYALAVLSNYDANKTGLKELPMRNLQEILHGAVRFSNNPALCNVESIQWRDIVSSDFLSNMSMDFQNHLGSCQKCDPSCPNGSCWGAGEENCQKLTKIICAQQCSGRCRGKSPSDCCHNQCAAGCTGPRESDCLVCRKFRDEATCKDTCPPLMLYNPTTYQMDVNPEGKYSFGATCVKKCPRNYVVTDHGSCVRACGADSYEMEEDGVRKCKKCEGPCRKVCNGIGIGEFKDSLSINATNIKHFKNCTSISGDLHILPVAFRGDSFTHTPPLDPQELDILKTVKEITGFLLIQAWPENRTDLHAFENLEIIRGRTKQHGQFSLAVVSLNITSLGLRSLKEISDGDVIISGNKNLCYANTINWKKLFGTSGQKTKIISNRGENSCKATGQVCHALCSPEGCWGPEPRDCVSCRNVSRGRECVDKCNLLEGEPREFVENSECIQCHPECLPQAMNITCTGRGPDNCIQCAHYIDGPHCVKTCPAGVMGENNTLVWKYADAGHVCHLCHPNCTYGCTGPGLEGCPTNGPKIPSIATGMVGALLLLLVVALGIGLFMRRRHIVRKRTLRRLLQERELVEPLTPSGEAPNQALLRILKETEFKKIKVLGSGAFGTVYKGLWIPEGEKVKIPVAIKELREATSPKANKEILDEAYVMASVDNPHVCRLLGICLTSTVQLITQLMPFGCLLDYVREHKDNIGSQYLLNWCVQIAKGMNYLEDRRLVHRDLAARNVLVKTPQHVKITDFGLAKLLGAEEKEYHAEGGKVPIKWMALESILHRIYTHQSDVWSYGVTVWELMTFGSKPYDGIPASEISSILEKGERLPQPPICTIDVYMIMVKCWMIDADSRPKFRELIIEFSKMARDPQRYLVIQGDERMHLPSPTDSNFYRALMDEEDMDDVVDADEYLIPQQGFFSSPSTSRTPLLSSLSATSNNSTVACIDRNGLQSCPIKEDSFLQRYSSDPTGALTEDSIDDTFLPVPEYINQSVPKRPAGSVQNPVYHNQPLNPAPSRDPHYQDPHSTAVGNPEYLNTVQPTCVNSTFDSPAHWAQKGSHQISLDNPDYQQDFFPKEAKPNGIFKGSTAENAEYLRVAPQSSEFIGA

CCOC(=O)N1CCN(c2cc(-c3ccc(C#N)cc3)cc(-c3csc(NC(=O)c4cccnc4SC)n3)c2)CC1
EC90 [1]: 0.02 µM | CC50 at 24 h [2]: > 30 µM | log(activity) [3]: 8.1 | CC50 at 72 h [4]: > 40 µM | solubility kinetic [5]: < 1 µM | logD [6]: > 3.99 | half-life [7]: 1.05 h | half-life [8]: 0.35 h | EC90 [9]: 0.02 µM | log(activity) [10]: 4.9 | EC90 [11]: 0.15 µM | log(activity) [12]: 4 | EC90 [13]: 0.3 µM | log(activity) [14]: 3.3 | EC90 [15]: 0.15 µM | log(activity) [16]: 3.5 | CC50 [17]: > 30 µM

CSc1ncccc1C(=O)Nc1nc(-c2cccc(Nc3ccc(C#N)cc3)c2)cs1
CC50 at 24 h [2]: > 30 µM | log(activity) [3]: 8.7 | CC50 at 72 h [4]: > 30 µM | solubility kinetic [5]: < 1 µM | logD [6]: > 4.04 | half-life [7]: 1.23 h | half-life [8]: 0.383 h | EC90 [9]: 0.19 µM | log(activity) [10]: 5.9 | EC90 [11]: 0.75 µM | log(activity) [12]: 2.6 | EC90 [13]: 0.12 µM | log(activity) [14]: 2.6 | EC90 [15]: 0.17 µM | log(activity) [16]: 3.5 | CC50 [17]: > 30 µM | inhibition [18]: Active | inhibition [19]: < 30% | inhibition [20]: < 30% | inhibition [21]: < 30% | inhibition [22]: < 30% | inhibition [23]: < 30% | EC50 [24]: > 50 µM | half-life [25]: 1.78 h | AUC [26]: 0.821 µg·h/mL | half-life [27]: 3.52 h | AUC [28]: 30.6 µg·h/mL | Cmax [29]: 2.46 µg/mL | bioavailability [30]: 91% | half-life [31]: 2.38 h | AUC [32]: 15.3 µg·h/mL | Cmax [33]: 2.1 µg/mL | bioavailability [34]: 45% | half-life [35]: 5.7 h | AUC [36]: 1.52 µg·h/mL | Cmax [37]: 0.142 µg/mL | bioavailability [38]: 5% | Activity [39]: inactive | Activity [40]: Active | Activity [41]: inactive | Activity [42]: inactive | Activity [43]: Active | Activity [44]: inactive | Activity [45]: inactive | Activity [46]: inactive | Activity [47]: Active | Activity [48]: Active
